Our source for the IC50 and inhibition values is patent US7612211B2, “Benzimidazole TRPV1 inhibitors” (Janssen Pharmaceutica N.V., priority 2006, dated 2009).

In this test the target is T1, hTRPV1 (Homo sapiens, UniProt Q8NER1).
T1 construct: expressed in transfected cells; host or cells: HEK293
Nature of the test: Human TRPV1 (hTRPV1) functional assay, FLIPR intracellular Ca2+, capsaicin challenge. The format is cell-based. To be noted: HEK293 cells expressing hTRPV1, capsaicin 0.030 μM challenge; for IC50: derived from a variety of test concentrations, read-out: IC50 value (symbol c); for inhibition at 0.5 µM: test concentration of 0.5 μm, read-out: percent inhibition (symbol a); for inhibition at 0.2 µM: test concentration of 0.2 μm, read-out: percent inhibition (symbol b). An outline of the steps:
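HEK293 cells expressing the channel, loaded with Calcium 3 dye, were exposed to compounds for 5 min before capsaicin 0.030 μM (~80% maximal). FLIPR Ca2+ read; IC50/EC50 from quadruplicate concentration-response, or percent inhibition at 0.5 μm or 0.2 μm.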

T1 sequence (Q8NER1 whole entry): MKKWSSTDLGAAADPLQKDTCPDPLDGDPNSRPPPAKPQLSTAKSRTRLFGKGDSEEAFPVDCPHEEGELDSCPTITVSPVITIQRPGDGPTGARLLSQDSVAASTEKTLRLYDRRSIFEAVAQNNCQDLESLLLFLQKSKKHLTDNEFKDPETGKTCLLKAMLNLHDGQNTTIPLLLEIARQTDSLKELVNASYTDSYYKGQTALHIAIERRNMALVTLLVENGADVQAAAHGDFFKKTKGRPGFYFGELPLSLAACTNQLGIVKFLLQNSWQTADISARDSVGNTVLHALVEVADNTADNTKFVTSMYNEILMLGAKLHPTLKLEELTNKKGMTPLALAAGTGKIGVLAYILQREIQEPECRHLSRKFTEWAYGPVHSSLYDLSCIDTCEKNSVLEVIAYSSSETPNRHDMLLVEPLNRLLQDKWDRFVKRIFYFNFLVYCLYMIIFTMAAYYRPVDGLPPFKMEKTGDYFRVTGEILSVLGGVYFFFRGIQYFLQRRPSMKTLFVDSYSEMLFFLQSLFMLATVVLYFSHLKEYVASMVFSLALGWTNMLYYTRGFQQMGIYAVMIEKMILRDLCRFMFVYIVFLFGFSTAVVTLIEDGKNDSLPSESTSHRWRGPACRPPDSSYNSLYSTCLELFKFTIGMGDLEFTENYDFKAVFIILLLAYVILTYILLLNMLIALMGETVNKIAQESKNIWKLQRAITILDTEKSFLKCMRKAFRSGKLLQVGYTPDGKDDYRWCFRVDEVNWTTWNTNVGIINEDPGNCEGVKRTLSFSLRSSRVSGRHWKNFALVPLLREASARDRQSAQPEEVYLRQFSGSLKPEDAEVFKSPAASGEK

Regarding `Cc1ccc(OCc2nc3cc(-c4ccccc4S(N)(=O)=O)ccc3[nH]2)cc1` [Cpd 27, 2-(2-p-tolyloxymethyl-1H-benzoimidazol-5-yl)-benzenesulfonamide], the IC50 (usually the concentration that gives 50% inhibition) is 12 nM and the inhibition (commonly how much of the control response was suppressed) at 0.5 µM was 98%.

In the case of `CNS(=O)(=O)c1ccccc1-c1ccc2[nH]c(COc3ccc(S(C)(=O)=O)cc3)nc2c1` [Cpd 19, 2-[2-(4-methanesulfonyl-phenoxymethyl)-1H-benzoimidazol-5-yl]-N-methyl-benzenesulfonamide], the IC50 was 8 nM and the inhibition at 0.5 µM is 100%.

Consider `CN(CCO)C(=O)c1ccccc1-c1ccc2[nH]c(COc3ccc(C(F)(F)F)cc3)nc2c1` [Cpd 155, N-(2-hydroxy-ethyl)-N-methyl-2-[2-(4-trifluoromethyl-phenoxymethyl)-1H-benzoimidazol-5-yl]-benzamide], for which the inhibition at 0.2 µM came out at 21%.

Take `CC(C)(O)c1ccccc1-c1ccc2[nH]c(COc3ccc(S(C)(=O)=O)cc3)nc2c1` [Cpd 25, 2-{2-[2-(4-methanesulfonyl-phenoxymethyl)-1H-benzoimidazol-5-yl]-phenyl}-propan-2-ol]: the IC50 stood at 13 nM and the inhibition at 0.5 µM came out at 100%.

As for `NS(=O)(=O)c1ccccc1-c1ccc2[nH]c(CS(=O)(=O)c3ccc(OC(F)(F)F)cc3)nc2c1` [Cpd 46, 2-[2-(4-trifluoromethoxy-benzenesulfonylmethyl)-1H-benzoimidazol-5-yl]-benzenesulfonamide], the inhibition at 0.2 µM is 5%.

Regarding `CC(C)c1ccc(OCc2nc3cc(-c4ccccc4S(C)(=O)=O)ccc3[nH]2)cc1` [Cpd 77, 2-(4-isopropyl-phenoxymethyl)-5-(2-methanesulfonyl-phenyl)-1H-benzoimidazole], the IC50 turned out to be 3 nM and the inhibition at 0.2 µM came to 100%.

Turning to `CNS(=O)(=O)c1ccccc1-c1ccc2[nH]c(COc3ccc(C(C)C)cc3)nc2c1` [Cpd 51, 2-[2-(4-isopropyl-phenoxymethyl)-1H-benzoimidazol-5-yl]-N-methyl-benzenesulfonamide], the IC50 came to 7.8 nM and the inhibition at 0.2 µM turned out to be 100%.

As to `CS(=O)(=O)c1ccccc1-c1ccc2[nH]c(COc3ccc(Cl)cc3)nc2c1` [Cpd 59, 2-(4-chloro-phenoxymethyl)-5-(2-methanesulfonyl-phenyl)-1H-benzoimidazole], the IC50 came out at 18 nM and the inhibition at 0.2 µM was 87%.

Take `CC(C)(O)c1ccccc1-c1ccc2[nH]c(COc3cccc(C(F)(F)F)c3)nc2c1` [Cpd 24, 2-{2-[2-(3-trifluoromethyl-phenoxymethyl)-1H-benzoimidazol-5-yl]-phenyl}-propan-2-ol]: the IC50 came to 156 nM and the inhibition at 0.5 µM came out at 92%.

As to `CCC(Oc1ccc(C(F)(F)F)cc1)c1nc2cc(-c3ccccc3S(N)(=O)=O)ccc2[nH]1` (stereo not drawn) [Cpd 157, 2-{2-[1-(4-trifluoromethyl-phenoxy)-propyl]-1H-benzoimidazol-5-yl}-benzenesulfonamide], the inhibition at 0.2 µM was found to be 20%.

For `NS(=O)(=O)c1ccccc1-c1ccc2[nH]c(CNc3ccc(C(F)(F)F)cc3)nc2c1` [Cpd 47, 2-{2-[(4-trifluoromethyl-phenylamino)-methyl]-1H-benzoimidazol-5-yl}-benzenesulfonamide], the inhibition at 0.2 µM turned out to be 46%.

Consider `NS(=O)(=O)c1ccccc1-c1ccc2[nH]c(COc3ccc(F)c(F)c3F)nc2c1` [Cpd 14, 2-[2-(2,3,4-trifluoro-phenoxymethyl)-1H-benzoimidazol-5-yl]-benzenesulfonamide], for which the IC50 turned out to be 110 nM.

`CON(C)C(=O)C(O)c1ccccc1-c1ccc2[nH]c(COc3ccc(C(F)(F)F)cc3)nc2c1` (stereo not drawn) [Cpd 149, 2-hydroxy-N-methoxy-N-methyl-2-{2-[2-(4-trifluoromethyl-phenoxymethyl)-1H-benzoimidazol-5-yl]-phenyl}-acetamide]: the IC50 came to 46 nM and the inhibition at 0.2 µM turned out to be 89%.

Take `CN(C)S(=O)(=O)c1ccccc1-c1ccc2[nH]c(COc3ccc(C(F)(F)F)cc3)nc2c1` [Cpd 106, N,N-dimethyl-2-[2-(4-trifluoromethyl-phenoxymethyl)-1H-benzoimidazol-5-yl]-benzenesulfonamide]: the IC50 amounted to 3 nM and the inhibition at 0.5 µM was 94%.

`O=C(NCCO)c1ccccc1-c1ccc2[nH]c(COc3ccc(C(F)(F)F)cc3)nc2c1` [Cpd 152, N-(2-hydroxy-ethyl)-2-[2-(4-trifluoromethyl-phenoxymethyl)-1H-benzoimidazol-5-yl]-benzamide]: the inhibition at 0.2 µM is 38%.

Regarding `CC(C)(O)CNC(=O)c1ccccc1-c1ccc2[nH]c(COc3ccc(C(F)(F)F)cc3)nc2c1` [Cpd 153, N-(2-hydroxy-2-methyl-propyl)-2-[2-(4-trifluoromethyl-phenoxymethyl)-1H-benzoimidazol-5-yl]-benzamide], the inhibition at 0.2 µM turned out to be 31%.

Turning to `NS(=O)(=O)c1ccccc1-c1ccc2[nH]c(COc3ccc(C4CC4)cc3)nc2c1` [Cpd 164, 2-[2-(4-cyclopropyl-phenoxymethyl)-1H-benzoimidazol-5-yl]-benzenesulfonamide], the half-maximal inhibitory concentration (IC50) was 25 nM and the inhibition at 0.2 µM was 97%.

For `CC(C)(O)c1ccccc1-c1ccc2[nH]c(COc3ccc(C4CC4)cc3)nc2c1` [Cpd 163, 2-{2-[2-(4-cyclopropyl-phenoxymethyl)-1H-benzoimidazol-5-yl]-phenyl}-propan-2-ol], the IC50 was 3 nM and the inhibition at 0.2 µM came to 98%.

On to `O=C(CO)c1ccccc1-c1ccc2[nH]c(COc3ccc(C(F)(F)F)cc3)nc2c1` [Cpd 151, 2-hydroxy-1-{2-[2-(4-trifluoromethyl-phenoxymethyl)-1H-benzoimidazol-5-yl]-phenyl}-ethanone], for which the inhibition at 0.2 µM turned out to be 33%.

Consider `CS(=O)(=O)c1ccccc1-c1ccc2[nH]c(COc3ccc(Cl)cc3Cl)nc2c1` [Cpd 64, 2-(2,4-dichloro-phenoxymethyl)-5-(2-methanesulfonyl-phenyl)-1H-benzoimidazole], for which the inhibition at 0.2 µM came to 58%.

For `CS(=O)(=O)c1ccccc1-c1ccc2[nH]c(COc3cc(F)c(F)c(F)c3)nc2c1` [Cpd 68, 5-(2-methanesulfonyl-phenyl)-2-(3,4,5-trifluoro-phenoxymethyl)-1H-benzoimidazole], the inhibition at 0.2 µM was 59%.

Turning to `COC(=O)CCc1ccc(OCc2nc3cc(-c4ccccc4S(C)(=O)=O)ccc3[nH]2)cc1` [Cpd 88, 3-{4-[5-(2-methanesulfonyl-phenyl)-1H-benzoimidazol-2-ylmethoxy]-phenyl}-propionic acid methyl ester], the inhibition at 0.2 µM was 36%.

Consider `CS(=O)(=O)c1ccccc1-c1ccc2[nH]c(COc3cccc(C(F)(F)F)c3)nc2c1` [Cpd 75, 5-(2-methanesulfonyl-phenyl)-2-(3-trifluoromethyl-phenoxymethyl)-1H-benzoimidazole], for which the IC50 is 68 nM and the inhibition at 0.2 µM is 93%.

For `CNS(=O)(=O)c1ccccc1-c1ccc2[nH]c(COc3cccc(C(F)(F)F)c3)nc2c1` [Cpd 52, N-methyl-2-[2-(3-trifluoromethyl-phenoxymethyl)-1H-benzoimidazol-5-yl]-benzenesulfonamide], the IC50 came out at 35 nM and the inhibition at 0.2 µM amounted to 99%.

Take `NS(=O)(=O)c1ccccc1-c1ccc2[nH]c(COc3cccc(Cl)c3)nc2c1` [Cpd 6, 2-[2-(3-chloro-phenoxymethyl)-1H-benzoimidazol-5-yl]-benzenesulfonamide]: the IC50 is 102 nM and the inhibition at 0.5 µM was 87%.
